The values that follow come from patent US8283361B2 (AstraZeneca AB, priority 2008, dated 2012).

The structures appear in SMILES notation.

S. aureus GyrB ATPase, sequence (P0A0K8 whole entry): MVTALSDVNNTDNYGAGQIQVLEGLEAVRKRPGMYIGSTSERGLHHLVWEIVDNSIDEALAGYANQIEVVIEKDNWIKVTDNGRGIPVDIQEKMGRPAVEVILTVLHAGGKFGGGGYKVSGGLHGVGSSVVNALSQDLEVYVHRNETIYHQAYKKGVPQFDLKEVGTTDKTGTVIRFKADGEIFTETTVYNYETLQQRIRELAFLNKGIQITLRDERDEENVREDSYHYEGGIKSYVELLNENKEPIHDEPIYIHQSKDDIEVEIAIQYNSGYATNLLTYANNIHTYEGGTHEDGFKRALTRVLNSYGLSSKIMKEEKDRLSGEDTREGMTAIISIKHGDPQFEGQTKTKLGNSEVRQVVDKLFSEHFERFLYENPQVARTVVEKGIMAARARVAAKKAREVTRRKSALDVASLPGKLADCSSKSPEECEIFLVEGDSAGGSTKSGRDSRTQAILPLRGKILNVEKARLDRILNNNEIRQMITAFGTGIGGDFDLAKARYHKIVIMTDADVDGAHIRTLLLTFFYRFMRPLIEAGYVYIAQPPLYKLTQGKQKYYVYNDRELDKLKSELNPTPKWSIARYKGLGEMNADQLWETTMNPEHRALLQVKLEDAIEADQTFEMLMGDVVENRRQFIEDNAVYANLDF
S. aureus GyrB ATPase, sequence (P0AES4 whole entry, further chain): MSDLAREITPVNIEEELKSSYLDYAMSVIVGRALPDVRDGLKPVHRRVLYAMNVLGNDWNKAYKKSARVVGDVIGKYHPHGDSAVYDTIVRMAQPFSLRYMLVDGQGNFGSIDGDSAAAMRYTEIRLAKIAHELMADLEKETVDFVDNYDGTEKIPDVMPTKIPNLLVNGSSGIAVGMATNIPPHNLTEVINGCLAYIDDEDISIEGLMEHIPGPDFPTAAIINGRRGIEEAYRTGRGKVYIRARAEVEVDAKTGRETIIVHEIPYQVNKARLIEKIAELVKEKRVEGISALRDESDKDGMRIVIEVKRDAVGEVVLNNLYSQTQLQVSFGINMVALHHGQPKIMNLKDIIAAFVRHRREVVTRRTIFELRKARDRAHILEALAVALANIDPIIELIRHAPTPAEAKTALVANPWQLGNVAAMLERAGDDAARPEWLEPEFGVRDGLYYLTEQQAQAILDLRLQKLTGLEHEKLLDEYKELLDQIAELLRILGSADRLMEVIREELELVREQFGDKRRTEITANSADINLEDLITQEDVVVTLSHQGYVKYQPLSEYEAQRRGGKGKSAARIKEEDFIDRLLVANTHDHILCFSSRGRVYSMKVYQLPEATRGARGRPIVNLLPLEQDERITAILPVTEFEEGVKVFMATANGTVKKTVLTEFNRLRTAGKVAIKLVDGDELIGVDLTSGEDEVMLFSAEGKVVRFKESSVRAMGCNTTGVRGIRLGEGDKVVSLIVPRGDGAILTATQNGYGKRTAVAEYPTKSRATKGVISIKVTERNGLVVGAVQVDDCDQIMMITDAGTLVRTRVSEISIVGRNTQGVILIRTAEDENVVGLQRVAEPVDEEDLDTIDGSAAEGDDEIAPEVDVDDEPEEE

This assay addresses S. aureus GyrB ATPase (Staphylococcus aureus, UniProt P0A0K8). In words: biochemical. As to conditions: compound at 1 μM; one value per test if tested more than once; read-out: % Inhibition of S. aureus GyrB ATPase. An outline of the steps:
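IC50 values derive from 10-point titrations of compound (in DMSO). Phosphate formed from 250 μM ATP was quantified by acidic molybdate/malachite green after quenching.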
A word on the inhibition: it is the drop in the measured response relative to a control, in per cent. Consider `CCCNC(=O)Nc1cc(-c2nc(C(F)(F)F)cs2)c(-c2ccc3c(c2)c(=O)c(C(=O)O)cn3CCC2CCOCC2)cn1` [Example 200, 4-oxo-6-(6-(3-propylureido)-4-(4-(trifluoromethyl)thiazol-2-yl)pyridin-3-yl)-1-(2-(tetrahydro-2H-pyran-4-yl)ethyl)-1,4-dihydroquinoline-3-carboxylic acid], for which the inhibition at 1 µM was 111%.

With `CCNC(=O)Nc1cc(-c2nc(C(F)(F)F)cs2)c(-c2ccc3c(c2)c(=O)c(C(=O)O)cn3[C@@H]2CCN(C)C2)cn1` [Example 246, (R)-6-(6-(3-ethylureido)-4-(4-(trifluoromethyl)thiazol-2-yl)pyridin-3-yl)-1-(1-methylpyrrolidin-3-yl)-4-oxo-1,4-dihydroquinoline-3-carboxylic acid], the inhibition at 1 µM was 104%.

As to `CCNC(=O)Nc1cc(-c2nc(C(F)(F)F)cs2)c(-c2ccc3c(c2)c(=O)c(C(=O)NCCO)cn3Cc2noc(C3CC3)n2)cn1` [Example 329], the inhibition at 1 µM turned out to be 97%.

In the case of `CCNC(=O)Nc1cc(-c2nc(C(F)(F)F)cs2)c(-c2ccc3c(=O)c(C(=O)NCCN4CCOCC4)cn(CC(C)C)c3c2)cn1` [Example 345, 7-{6-[(ethylcarbamoyl)amino]-4-[4-(trifluoromethyl)-1,3-thiazol-2-yl]pyridin-3-yl}-1-(2-methylpropyl)-N-[2-(morpholin-4-yl)ethyl]-4-oxo-1,4-dihydroquinoline-3-carboxamide], the inhibition at 1 µM worked out at 98%.

In the case of `CCCNC(=O)Nc1cc(-c2nc(C(F)(F)F)cs2)c(-c2ccc3c(c2)c(=O)c(C(=O)NCCO)cn3CCN(C)C)cn1` [Example 203, 1-(2-(dimethylamino)ethyl)-N-(2-hydroxyethyl)-4-oxo-6-(6-(3-propylureido)-4-(4-(trifluoromethyl)thiazol-2-yl)pyridin-3-yl)-1,4-dihydroquinoline-3-carboxamide], the inhibition at 1 µM turned out to be 87%.

With `CCNC(=O)Nc1cc(-c2nc(-c3ccccc3)cs2)c(-c2cc3c4c(c2)c(=O)c(C(=O)NC)cn4CCO3)cn1` [Example 41, 9-(6-(3-ethylureido)-4-(4-phenylthiazol-2-yl)pyridin-3-yl)-N-methyl-7-oxo-3,7-dihydro-2H-[1,4]oxazino[2,3,4-ij]quinoline-6-carboxamide], the inhibition at 1 µM came out at 105%.

Consider `CCCNC(=O)Nc1cc(-c2nc(C(F)(F)F)cs2)c(-c2ccc3c(c2)c(=O)c(C(=O)N2CCN(S(=O)(=O)N(C)C)CC2)cn3CCN(C)C)cn1` [Example 154, 4-(1-(2-(dimethylamino)ethyl)-4-oxo-6-(6-(3-propylureido)-4-(4-(trifluoromethyl)thiazol-2-yl)pyridin-3-yl)-1,4-dihydroquinoline-3-carbonyl)-N,N-dimethylpiperazine-1-sulfonamide], for which the inhibition at 1 µM worked out at 107%.

Regarding `CCNC(=O)Nc1cc(-c2nc(C(F)(F)F)cs2)c(-c2ccc3c(c2)c(=O)c(C(=O)NCCCO)cn3C2CC2)cn1` [Example 147, 1-cyclopropyl-6-(6-(3-ethylureido)-4-(4-(trifluoromethyl)thiazol-2-yl)pyridin-3-yl)-N-(3-hydroxypropyl)-4-oxo-1,4-dihydroquinoline-3-carboxamide], the inhibition at 1 µM was determined as 102%.

In the case of `CCNC(=O)Nc1cc(-c2nc(C(F)(F)F)cs2)c(-c2ccc3c(c2)c(=O)c(C(=O)O)cn3C(C)C)cn1` [Example 21, 6-(6-(3-Ethylureido)-4-(4-(trifluoromethyl)thiazol-2-yl)pyridin-3-yl)-1-isopropyl-4-oxo-1,4-dihydroquinoline-3-carboxylic acid], the inhibition at 1 µM amounted to 98%.

Turning to `CCNC(=O)Nc1cc(-c2nc(-c3ccccc3)cs2)c(-c2ccc3c(=O)c(C(=O)NC)cn(CC)c3c2)cn1` [Example 39, 1-ethyl-7-(6-(3-ethylureido)-4-(4-phenylthiazol-2-yl)pyridin-3-yl)-N-methyl-4-oxo-1,4-dihydroquinoline-3-carboxamide], the inhibition at 1 µM came out at 101%.

Consider `CCNC(=O)Nc1cc(-c2nc(-c3ccccc3)cs2)c(-c2cc3c4c(c2)c(=O)c(C(=O)O)cn4CCO3)cn1` [Example 17, 9-(6-(3-ethylureido)-4-(4-phenylthiazol-2-yl)pyridin-3-yl)-7-oxo-3,7-dihydro-2H-[1,4]oxazino[2,3,4-ij]quinoline-6-carboxylic acid], for which the inhibition at 1 µM came to 103%.

As to `CCNC(=O)Nc1cc(-c2nc(CC)cs2)c(-c2ccc3c(=O)c(C(=O)NC)cn(CC)c3c2)cn1` [Example 36, 1-ethyl-7-(4-(4-ethylthiazol-2-yl)-6-(3-ethylureido)pyridin-3-yl)-N-methyl-4-oxo-1,4-dihydroquinoline-3-carboxamide], the inhibition at 1 µM is 64%.

As to `CC(C)NC(=O)Nc1cc(-c2nc(C(F)(F)F)cs2)c(-c2ccc3c(c2)c(=O)c(C(=O)NCCN(C)C)cn3CCC2CCN(C)CC2)cn1` [Example 226], the inhibition at 1 µM turned out to be 94%.

`CCNC(=O)Nc1cc(-c2nc(C(F)(F)F)cs2)c(-c2ccc3c(c2)c(=O)c(C(=O)O)cn3[C@H](C)CO)cn1` [Example 72, (R)-6-(6-(3-ethylureido)-4-(4-(trifluoromethyl)thiazol-2-yl)pyridin-3-yl)-1-(1-hydroxypropan-2-yl)-4-oxo-1,4-dihydroquinoline-3-carboxylic acid]: the inhibition at 1 µM amounted to 103%.

For `CCNC(=O)Nc1cc(-c2nc(C(F)(F)F)cs2)c(-c2ccc3c(c2)c(=O)c(C(=O)O)cn3[C@@H]2CCCN(CCS(C)(=O)=O)C2)cn1` [Example 281, (R)-ethyl 6-(6-(3-ethylureido)-4-(4-(trifluoromethyl)thiazol-2-yl)pyridin-3-yl)-1-(1-(2-(methylsulfonyl)ethyl)piperidin-3-yl)-4-oxo-1,4-dihydroquinoline-3-carboxylic acid], the inhibition at 1 µM turned out to be 106%.

`CCNC(=O)Nc1cc(-c2nc(CC)cs2)c(-c2cc3c4c(c2)c(=O)c(C(=O)NC)cn4CCO3)cn1` [Example 38, 9-(4-(4-ethylthiazol-2-yl)-6-(3-ethylureido)pyridin-3-yl)-N-methyl-7-oxo-3,7-dihydro-2H-[1,4]oxazino[2,3,4-ij]quinoline-6-carboxamide]: the inhibition at 1 µM turned out to be 99%.

Consider `CCNC(=O)Nc1cc(-c2nc(C(F)(F)F)cs2)c(-c2ccc3c(c2)c(=O)c(C(=O)N2CCN(S(=O)(=O)N(C)C)CC2)cn3C(COC)COC)cn1` [Example 142, 4-{[1-(1,3-dimethoxypropan-2-yl)-6-{6-[(ethylcarbamoyl)amino]-4-[4-(trifluoromethyl)-1,3-thiazol-2-yl]pyridin-3-yl}-4-oxo-1,4-dihydroquinolin-3-yl]carbonyl}-N,N-dimethylpiperazine-1-sulfonamide], for which the inhibition at 1 µM was 97%.

With `CC(C)NC(=O)Nc1cc(-c2nc(C(F)(F)F)cs2)c(-c2ccc3c(c2)c(=O)c(C(=O)O)cn3C2CCOCC2)cn1` [Example 199, 6-(6-(3-isopropylureido)-4-(4-(trifluoromethyl)thiazol-2-yl)pyridin-3-yl)-4-oxo-1-(tetrahydro-2H-pyran-4-yl)-1,4-dihydroquinoline-3-carboxylic acid], the inhibition at 1 µM came out at 103%.

On to `CCNC(=O)Nc1cc(-c2nc(C(F)(F)F)cs2)c(-c2ccc3c(c2)c(=O)c(C(=O)O)cn3CC)cn1` [Example 10, 1-ethyl-6-(6-(3-ethylureido)-4-(4-trifluoromethylthiazol-2-yl)pyridin-3-yl)-4-oxo-1,4-dihydroquinoline-3-carboxylic acid], for which the inhibition at 1 µM came to 99%.

On to `CCCn1cc(C(=O)NCCN2CCOCC2)c(=O)c2ccc(-c3cnc(NC(=O)NCC)cc3-c3nc(C(F)(F)F)cs3)cc21` [Example 351, 7-{6-[(ethylcarbamoyl)amino]-4-[4-(trifluoromethyl)-1,3-thiazol-2-yl]pyridin-3-yl}-N-[2-(morpholin-4-yl)ethyl]-4-oxo-1-propyl-1,4-dihydroquinoline-3-carboxamide], for which the inhibition at 1 µM turned out to be 95%.

`CCNC(=O)Nc1cc(-c2nc(C(F)(F)F)cs2)c(-c2ccc3c(c2)c(=O)c(C(=O)O)cn3CC2CCN(CC)C2)cn1` (stereo not shown) [Example 305, 1-((1-ethylpyrrolidin-3-yl)methyl)-6-(6-(3-ethylureido)-4-(4-(trifluoromethyl)thiazol-2-yl)pyridin-3-yl)-4-oxo-1,4-dihydroquinoline-3-carboxylic acid]: the inhibition at 1 µM came out at 103%.

On to `CCNC(=O)Nc1cc(-c2nc(C(F)(F)F)cs2)c(-c2ccc3c(=O)c(C(=O)NCCN4CCN(C)CC4)cn(CCOC)c3c2)cn1` [Example 373, 7-{6-[(Ethylcarbamoyl)amino]-4-[4-(trifluoromethyl)-1,3-thiazol-2-yl]pyridin-3-yl}-1-(2-methoxyethyl)-N-[2-(4-methylpiperazin-1-yl)ethyl]-4-oxo-1,4-dihydroquinoline-3-carboxamide], for which the inhibition at 1 µM amounted to 94%.

As for `CCNC(=O)Nc1cc(-c2nc(C(F)(F)F)cs2)c(-c2ccc3c(c2)c(=O)c(C(=O)N2CCN(C)CC2)cn3C(COC)COC)cn1` [Example 143, 1-(5-{1-(1,3-dimethoxypropan-2-yl)-3-[(4-methylpiperazin-1-yl)carbonyl]-4-oxo-1,4-dihydroquinolin-6-yl}-4-[4-(trifluoromethyl)-1,3-thiazol-2-yl]pyridin-2-yl)-3-ethylurea], the inhibition at 1 µM worked out at 95%.

In the case of `CCNC(=O)Nc1cc(-c2nc(C(F)(F)F)cs2)c(-c2ccc3c(c2)c(=O)c(C(=O)O)cn3[C@H]2CCCN(CCS(C)(=O)=O)C2)cn1` [Example 280, (S)-ethyl 6-(6-(3-ethylureido)-4-(4-(trifluoromethyl)thiazol-2-yl)pyridin-3-yl)-1-(1-(2-(methylsulfonyl)ethyl)piperidin-3-yl)-4-oxo-1,4-dihydroquinoline-3-carboxylic acid], the inhibition at 1 µM turned out to be 103%.

For `CCNC(=O)Nc1cc(-c2nc(C(F)(F)F)cs2)c(-c2ccc3c(c2)c(=O)c(C(=O)O)cn3[C@H]2CCCN(C)C2)cn1` [Example 248, (S)-6-(6-(3-ethylureido)-4-(4-(trifluoromethyl)thiazol-2-yl)pyridin-3-yl)-1-(1-methylpiperidin-3-yl)-4-oxo-1,4-dihydroquinoline-3-carboxylic acid], the inhibition at 1 µM was found to be 103%.
